In ChEMBL document CHEMBL5126517, “Structure-Activity Relationship in the Leucettine Family of Kinase Inhibitors” (J Med Chem, 2022):
The source made the active and inactive calls.

Columns and labels:
U2OS = assay: Induction of PI3K/mTor-dependent autophagy in human U2OS cells assessed as number of LC3 foci per cell at 10 uM measured after 4 hrs; format: cell-based; details: filed as activator
[1] = target: T1, Glycogen synthase kinase-3 (Sus scrofa, UniProt B2LUN4+I6LNT8); assay: Inhibition of porcine brain GSK-3alpha/beta using YRRAAVPPSPSLSRHSSPHQpSEDEEE as substrate incubated for 30 mins in presence of ATP by scintillation counting method; format: tissue-based
Cannabinoid receptor 1 [2] = target: T2, Cannabinoid receptor 1 (Homo sapiens, UniProt P21554); assay: Antagonist activity at CP-55940-activated CB1 receptor (unknown origin) at 10 uM by beta-arrestin assay relative to control; format: functional; design: scale not given: the % may be the effect or the level left
T2 sequence (P21554 whole entry, the tested form may be a part): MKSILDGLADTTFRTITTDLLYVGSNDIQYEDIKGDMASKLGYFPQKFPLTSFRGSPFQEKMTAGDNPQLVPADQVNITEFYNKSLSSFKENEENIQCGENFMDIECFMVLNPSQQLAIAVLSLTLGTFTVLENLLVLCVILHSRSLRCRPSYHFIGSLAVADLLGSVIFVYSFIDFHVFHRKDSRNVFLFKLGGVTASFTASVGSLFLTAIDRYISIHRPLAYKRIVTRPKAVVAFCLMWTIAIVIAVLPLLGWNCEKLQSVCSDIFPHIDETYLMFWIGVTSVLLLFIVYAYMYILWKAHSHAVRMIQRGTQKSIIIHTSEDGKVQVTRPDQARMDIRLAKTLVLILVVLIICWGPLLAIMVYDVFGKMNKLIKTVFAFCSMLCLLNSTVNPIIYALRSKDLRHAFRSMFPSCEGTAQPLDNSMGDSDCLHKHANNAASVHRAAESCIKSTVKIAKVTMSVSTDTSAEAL

[3] = target: Dual specificity protein kinase CLK3 (Mus musculus, UniProt O35492); assay: Inhibition of GST-fused mouse recombinant CLK3 expressed in Escherichia coli using GRSRSRSRSRSR peptide as substrate incubated for 30 mins in presence of ATP by scintillation counting method
Chain of Dual specificity protein kinase CLK3 (O35492 whole entry, the tested form may be a part): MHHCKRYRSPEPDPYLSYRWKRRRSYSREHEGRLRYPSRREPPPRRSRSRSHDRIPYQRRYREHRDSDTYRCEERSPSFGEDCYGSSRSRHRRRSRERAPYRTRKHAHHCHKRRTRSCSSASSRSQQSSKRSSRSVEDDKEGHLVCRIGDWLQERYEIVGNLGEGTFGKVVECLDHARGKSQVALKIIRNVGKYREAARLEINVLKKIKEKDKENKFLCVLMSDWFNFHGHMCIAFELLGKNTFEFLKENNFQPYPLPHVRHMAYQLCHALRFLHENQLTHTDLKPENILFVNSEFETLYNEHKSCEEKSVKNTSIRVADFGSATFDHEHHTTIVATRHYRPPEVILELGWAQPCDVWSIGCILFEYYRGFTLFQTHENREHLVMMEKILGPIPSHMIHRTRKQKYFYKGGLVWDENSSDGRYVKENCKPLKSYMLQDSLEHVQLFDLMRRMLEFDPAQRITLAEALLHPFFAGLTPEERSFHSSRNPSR

[4] = target: Dual specificity protein kinase CLK1 (Mus musculus, UniProt P22518); assay: Inhibition of GST-fused mouse recombinant CLK1 expressed in Escherichia coli using GRSRSRSRSRSR peptide as substrate incubated for 30 mins in presence of ATP by scintillation counting method
Chain of Dual specificity protein kinase CLK1 (P22518 whole entry, the tested form may be a part): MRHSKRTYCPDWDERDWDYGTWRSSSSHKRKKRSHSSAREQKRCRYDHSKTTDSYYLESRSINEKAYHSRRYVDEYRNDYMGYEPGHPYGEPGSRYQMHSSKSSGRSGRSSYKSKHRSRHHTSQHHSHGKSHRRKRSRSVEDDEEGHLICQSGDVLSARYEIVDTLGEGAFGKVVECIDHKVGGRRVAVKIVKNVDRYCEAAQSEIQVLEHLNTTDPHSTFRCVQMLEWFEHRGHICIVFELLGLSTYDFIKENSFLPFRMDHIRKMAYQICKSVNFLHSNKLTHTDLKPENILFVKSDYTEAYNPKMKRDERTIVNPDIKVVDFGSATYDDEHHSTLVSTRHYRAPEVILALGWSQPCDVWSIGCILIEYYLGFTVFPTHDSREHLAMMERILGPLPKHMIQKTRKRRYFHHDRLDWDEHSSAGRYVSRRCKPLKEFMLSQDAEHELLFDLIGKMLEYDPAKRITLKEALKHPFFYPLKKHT

[5] = target: Dual specificity tyrosine-phosphorylation-regulated kinase 1B (Homo sapiens, UniProt Q9Y463)
Chain of Dual specificity tyrosine-phosphorylation-regulated kinase 1B (Q9Y463 whole entry, the tested form may be a part): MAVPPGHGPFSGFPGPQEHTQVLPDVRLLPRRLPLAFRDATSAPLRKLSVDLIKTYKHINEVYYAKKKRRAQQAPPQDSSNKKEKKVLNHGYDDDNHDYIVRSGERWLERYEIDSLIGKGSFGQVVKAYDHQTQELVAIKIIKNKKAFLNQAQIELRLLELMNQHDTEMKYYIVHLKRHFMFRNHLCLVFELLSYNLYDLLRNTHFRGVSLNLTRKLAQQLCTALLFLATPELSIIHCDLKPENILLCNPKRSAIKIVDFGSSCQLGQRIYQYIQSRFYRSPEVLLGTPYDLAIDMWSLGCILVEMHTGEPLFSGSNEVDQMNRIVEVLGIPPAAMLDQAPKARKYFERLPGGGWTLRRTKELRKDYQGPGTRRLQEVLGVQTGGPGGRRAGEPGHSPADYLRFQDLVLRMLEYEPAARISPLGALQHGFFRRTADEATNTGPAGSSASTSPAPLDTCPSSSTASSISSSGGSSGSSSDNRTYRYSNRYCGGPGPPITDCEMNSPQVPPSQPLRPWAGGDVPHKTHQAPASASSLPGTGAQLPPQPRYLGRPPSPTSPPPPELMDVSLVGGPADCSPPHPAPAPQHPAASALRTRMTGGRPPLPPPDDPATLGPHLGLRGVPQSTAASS

[6] = target: T3, Dual specificity tyrosine-phosphorylation-regulated kinase 3 (Homo sapiens, UniProt O43781); assay: Inhibition of GST-fused human recombinant DYRK3 expressed in Escherichia coli using GRSRSRSRSRSR peptide as substrate incubated for 30 mins in presence of ATP by scintillation counting method
T3 sequence (O43781 whole entry): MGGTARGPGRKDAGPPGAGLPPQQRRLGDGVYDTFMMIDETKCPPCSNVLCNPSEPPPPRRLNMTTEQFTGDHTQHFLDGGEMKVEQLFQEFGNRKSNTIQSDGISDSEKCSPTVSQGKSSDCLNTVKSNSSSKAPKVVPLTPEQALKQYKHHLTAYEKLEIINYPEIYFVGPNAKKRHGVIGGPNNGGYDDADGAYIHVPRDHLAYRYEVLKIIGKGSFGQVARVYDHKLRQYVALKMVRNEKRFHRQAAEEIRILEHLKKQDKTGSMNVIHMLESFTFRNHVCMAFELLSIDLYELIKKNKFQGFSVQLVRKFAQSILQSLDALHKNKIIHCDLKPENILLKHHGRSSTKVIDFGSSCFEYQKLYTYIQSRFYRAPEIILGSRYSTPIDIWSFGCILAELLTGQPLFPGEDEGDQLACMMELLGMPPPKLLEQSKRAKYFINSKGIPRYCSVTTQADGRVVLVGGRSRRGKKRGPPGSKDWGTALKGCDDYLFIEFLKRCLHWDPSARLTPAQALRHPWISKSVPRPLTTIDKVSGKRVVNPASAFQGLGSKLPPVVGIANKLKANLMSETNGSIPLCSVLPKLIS

Casein kinase 2 = Casein kinase 2 (Homo sapiens, UniProt P67870+P68400+P19784+Q8NEV1); assay: Inhibition of human recombinant CK2 using RRRDDDSDDD peptide as substrate incubated for 30 mins in presence of ATP by scintillation counting method; format: protein assay
HT-22 [7] = assay: Induction of PI3K/mTor-dependent autophagy in mouse HT-22 cells assessed as number of LC3 foci per cell at 10 uM incubated for 24 hrs using Lamp-1 staining based immunofluorescence microscopy; details: filed as activator
HT-22 [8] = assay: Induction of PI3K/mTor-dependent autophagy in mouse HT-22 cells assessed as number of LC3 foci per cell at 10 uM incubated for 24 hrs using Anti-LC3 staining based immunofluorescence microscopy; details: filed as activator
[9] = target: T4, Dual specificity tyrosine-phosphorylation-regulated kinase 2 (Homo sapiens, UniProt Q92630); assay: Inhibition of GST-fused human recombinant DYRK2 expressed in Escherichia coli using GRSRSRSRSRSR peptide as substrate incubated for 30 mins in presence of ATP by scintillation counting method
T4 sequence (Q92630 whole entry): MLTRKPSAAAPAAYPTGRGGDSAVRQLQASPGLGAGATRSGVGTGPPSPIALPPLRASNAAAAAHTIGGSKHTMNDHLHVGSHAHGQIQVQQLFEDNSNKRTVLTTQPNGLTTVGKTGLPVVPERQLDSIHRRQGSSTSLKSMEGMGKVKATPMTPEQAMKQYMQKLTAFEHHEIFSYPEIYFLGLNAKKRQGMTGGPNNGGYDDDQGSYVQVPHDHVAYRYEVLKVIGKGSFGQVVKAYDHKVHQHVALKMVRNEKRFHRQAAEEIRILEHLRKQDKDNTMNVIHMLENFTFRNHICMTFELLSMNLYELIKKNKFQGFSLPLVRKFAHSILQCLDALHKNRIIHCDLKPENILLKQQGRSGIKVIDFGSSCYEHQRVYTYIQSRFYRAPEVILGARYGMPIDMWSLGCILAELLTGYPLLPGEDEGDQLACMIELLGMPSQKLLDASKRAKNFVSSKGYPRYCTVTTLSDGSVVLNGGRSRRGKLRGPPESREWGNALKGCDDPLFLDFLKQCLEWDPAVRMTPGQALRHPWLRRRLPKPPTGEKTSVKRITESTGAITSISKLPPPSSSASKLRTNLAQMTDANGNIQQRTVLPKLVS

[10] = target: Dual specificity protein kinase CLK4 (Mus musculus, UniProt O35493); assay: Inhibition of GST-fused mouse recombinant CLK4 expressed in Escherichia coli using GRSRSRSRSRSR peptide as substrate incubated for 30 mins in presence of ATP by scintillation counting method
Chain of Dual specificity protein kinase CLK4 (O35493 whole entry, the tested form may be a part): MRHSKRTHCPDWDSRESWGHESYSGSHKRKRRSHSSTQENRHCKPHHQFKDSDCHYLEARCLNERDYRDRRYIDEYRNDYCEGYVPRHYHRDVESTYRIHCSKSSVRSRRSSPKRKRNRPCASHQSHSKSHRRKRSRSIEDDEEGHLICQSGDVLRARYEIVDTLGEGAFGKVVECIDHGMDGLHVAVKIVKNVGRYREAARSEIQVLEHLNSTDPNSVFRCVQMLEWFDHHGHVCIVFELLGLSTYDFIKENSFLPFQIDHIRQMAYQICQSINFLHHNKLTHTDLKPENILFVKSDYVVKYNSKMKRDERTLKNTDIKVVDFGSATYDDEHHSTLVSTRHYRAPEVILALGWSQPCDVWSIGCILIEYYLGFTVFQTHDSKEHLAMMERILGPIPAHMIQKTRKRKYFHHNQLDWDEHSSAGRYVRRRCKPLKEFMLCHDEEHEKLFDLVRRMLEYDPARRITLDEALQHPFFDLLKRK

HT-22 [11] = assay: Neuroprotective activity against glutamate-induced cell death in mouse HT-22 cells treated for 24 hrs by MTS assay; format: functional, cell-based; details: HT-22, 24 h
[12] = Neurotoxicity against mouse HT-22 cells assessed as cell survival treated for 24 hrs by MTS assay; format: toxicity, cell-based
[13] = target: Dual specificity tyrosine-phosphorylation-regulated kinase 1A (Homo sapiens, UniProt Q13627); assay: Inhibition of GST-fused human recombinant DYRK1A expressed in Escherichia coli using GRSRSRSRSRSR peptide as substrate incubated for 30 mins in presence of ATP by scintillation counting method
[14] = target: Dual specificity protein kinase CLK2 (Mus musculus, UniProt O35491); assay: Inhibition of mouse recombinant GST-fused CLK2 expressed in Escherichia coli using GRSRSRSRSRSR peptide as substrate incubated for 30 mins in presence of ATP by scintillation counting method
Chain of Dual specificity protein kinase CLK2 (O35491 whole entry, the tested form may be a part): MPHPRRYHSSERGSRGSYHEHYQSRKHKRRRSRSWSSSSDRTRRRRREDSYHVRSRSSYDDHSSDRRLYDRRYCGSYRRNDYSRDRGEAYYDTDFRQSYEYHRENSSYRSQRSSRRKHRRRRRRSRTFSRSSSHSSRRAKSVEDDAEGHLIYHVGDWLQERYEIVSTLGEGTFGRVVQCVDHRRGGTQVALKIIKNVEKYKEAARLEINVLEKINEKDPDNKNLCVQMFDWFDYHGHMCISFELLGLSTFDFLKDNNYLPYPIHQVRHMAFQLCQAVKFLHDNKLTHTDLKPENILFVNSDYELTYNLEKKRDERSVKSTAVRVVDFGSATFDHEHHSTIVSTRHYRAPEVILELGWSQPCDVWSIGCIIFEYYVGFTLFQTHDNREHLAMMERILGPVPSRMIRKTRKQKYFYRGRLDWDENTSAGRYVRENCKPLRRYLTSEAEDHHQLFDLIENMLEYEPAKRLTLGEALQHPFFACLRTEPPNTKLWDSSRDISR

Cannabinoid receptor 1 [15] = target: T2, Cannabinoid receptor 1; assay: Antagonist activity at CP-55940-activated CB1 receptor (unknown origin) by beta-arrestin assay; format: functional
[16] = target: Serine/threonine-protein kinase pim-1 (Homo sapiens, UniProt P11309); assay: Inhibition of human recombinant Pim1 expressed in Escherichia coli using histone H1 as substrate incubated for 30 mins in presence of ATP by scintillation counting method
Chain of Serine/threonine-protein kinase pim-1 (P11309 whole entry): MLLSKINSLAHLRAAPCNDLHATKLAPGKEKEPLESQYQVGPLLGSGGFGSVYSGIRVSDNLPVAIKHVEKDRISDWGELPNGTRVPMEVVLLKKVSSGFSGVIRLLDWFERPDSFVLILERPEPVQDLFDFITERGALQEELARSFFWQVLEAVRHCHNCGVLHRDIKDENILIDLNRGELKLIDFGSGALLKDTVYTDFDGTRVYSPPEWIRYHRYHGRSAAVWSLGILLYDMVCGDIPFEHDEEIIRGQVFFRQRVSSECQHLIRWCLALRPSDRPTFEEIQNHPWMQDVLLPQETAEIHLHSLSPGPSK

[17] = Neurotoxicity against mouse HT-22 cells assessed as cell survival at 20 uM treated for 24 hrs by MTS assay; format: toxicity, cell-based; details: ht-22, 24 h
[18] = Drug metabolism in human liver microsomes assessed as GSH reduction metabolite at 50 uM incubated for 60 mins in presence of 13C2,15N-GSH by LC-MS/MS analysis; format: ADME, Microsome; details: 1 h
[19] = target: T1, Glycogen synthase kinase-3; assay: Inhibition of porcine brain GSK-3alpha/beta at 10 uM using YRRAAVPPSPSLSRHSSPHQpSEDEEE as substrate incubated for 30 mins in presence of ATP by scintillation counting method; format: tissue-based
HT-22 [20] = assay: Modulation of CLK1 pre-mRNA splicing in mouse HT-22 cells assessed as inclusion of CLK1 exon 4 by measuring change in threshold cycle at 10 uM measured after 4 hrs by real time PCR analysis; format: cell-based; details: filed as modulator
[21] = Neurotoxicity against mouse HT-22 cells assessed as cell survival at 10 uM treated for 24 hrs by MTS assay; format: toxicity, cell-based; details: ht-22, 24 h
[22] = Reduction in phosphorylated Tau Thr212 residue in wild-type C57BL/6J mouse brain dosed at 20 mg/kg/day, ip for 19 days by western blot analysis; format: toxicity, organism-based; details: in vivo, 456 h, time 19 day
HT-22 [23] = assay: Neuroprotective activity against glutamate-induced cell death in mouse HT-22 cells at 10 uM incubated for 24 hrs by phase contrast microscopy; format: functional, cell-based
HT-22 [24] = details: Mus musculus, filed as modulator, dose 10.0 µM, time 6.0 hrs
Cannabinoid receptor 1 [25] = target: T2, Cannabinoid receptor 1; assay: Displacement of [3H]-CP55940 from CB1 receptor (unknown origin) expressed in HEK293 cell membrane assessed as dissociation constant at 10 uM by liquid scintillation counting method; format: cell membranes; details: filed as modulator
Mus musculus = assay: Reduction in phosphorylated Tau Thr212 residue in Tg(Dyrk1a) mutant C57BL/6J mouse brain dosed at 20 mg/kg/day, ip for 19 days by western blot analysis; format: functional, organism-based; details: time 19.0 day
Cannabinoid receptor 1 [26] = target: T2, Cannabinoid receptor 1; assay: […] allosteric modulation of CB1 receptor (unknown origin) expressed in HEK293 cell membrane assessed as inhibition of CP-55940-induced [35S]-GTPgammaS binding at 10 uM in presence of GDP by liquid scintillation counting method; format: functional, cell membranes; details: DDE = dose-dependent effect
HT-22 [27] = assay: Modulation of CLK1 pre-mRNA splicing in mouse HT-22 cells assessed as maximal effect of CLK1 exon 4 inclusion measured after 3 hrs by qPCR analysis; format: functional, cell-based

SMILES	Activity (U2OS)	IC50 [1] [nM]	Activity (Cannabinoid receptor 1 [2]) [%]	IC50 [3] [nM]	IC50 [4] [nM]	IC50 [5] [nM]	IC50 [6] [nM]	IC50 (Casein kinase 2) [nM]	Activity (HT-22 [7])	Activity (HT-22 [8])	IC50 [9] [nM]	IC50 [10] [nM]	EC50 (HT-22 [11]) [nM]	IC50 at 24 h [12] [nM]	IC50 [13] [nM]	IC50 [14] [nM]	IC50 (Cannabinoid receptor 1 [15]) [nM]	IC50 [16] [nM]	Activity [17]	deltaCT (HT-22 [20])	further results
COc1cc(/C=C2\N=C(Nc3ccccc3)NC2=O)ccc1O	11.7	1100	1.6	610	21	62	120	620	Active	Active	33	23	1280	> 20000	70	140	4700	180			
COc1cc(/C=C2\N=C(Nc3ccc(N4CCN(C)CC4)cc3)NC2=O)ccc1O	22	200	14.3										> 20000						Non-Toxic		Drug metabolism [18]: Metabolite_Notdetected
O=C1N=C(Nc2ccccc2)S/C1=C\c1ccc2c(c1)OCO2	5.9		-5.9	430	800	610		2500			> 10000	1200			10000	> 10000		> 10000		-0.09	IC50 [19]: 2500 nM; EC50 at 24 h [12]: > 20000 nM
COc1cc(/C=C2\N=C(Nc3ccc(N4CCCCC4)cc3)NC2=O)ccc1O	10.9	> 10000			750	410	300				410	1200	1350		280	> 10000	297	6300			Activity (Cannabinoid receptor 1 [2]; filed as antagonist): 84.1%; Activity [21]: Non-Toxic
O=C1NC(Nc2ccccc2)=N/C1=C\c1ccc2c(c1)OCO2	11.6	600						510	Active	Active			6020	> 20000					Non-Toxic	8.18	Activity (U2OS; tested as the 2H-labelled form): 7.3; Activity [22]: Non-Toxic; Activity (Cannabinoid receptor 1 [2]; filed as antagonist): 96.8%; Activity (Cannabinoid receptor 1 [2]; filed as antagonist, tested as the 2H-labelled form): 92.7%; Activity (HT-22 [23]): Active; deltaCT (HT-22 [24]): 8.18; Kb (Cannabinoid receptor 1 [25]): 2200 nM; deltaCT (HT-22 [20]; tested as the 2H-labelled form): 7.71; Activity (Mus musculus): Active; Activity (Cannabinoid receptor 1 [26]): Dde; Activity (HT-22 [27]): Active
